In US8383637B2, “2-amino-quinazoline derivatives useful as inhibitors of β-secretase (BACE)” (Jansssen Pharmaceutica N.V., priority 2004, dated 2013):
Read-outs that look alike come from different tables or passages of the source.

Legend:
[1] = biological target: T1, β-secretase(BACE) (Homo sapiens, UniProt P56817); assay: BACE Assay-2 (FS1 substrate, IC50 and Ki); type: biochemical; settings: procedure of Example 159, FS1 substrate; read-out: Ki μM (159)
T1 construct: purchased Panvera
Experimental: The FS1-substrate stock solution was prepared in DMSO as a 10 mg/mL solution. The FS1-substrate working solution was prepared by diluting the 10 mg/mL stock solution with substrate assay buffer to a final concentration of 300 μg/mL. The β-secretase (BACE) working solution was prepared by diluting a 0.83 mg/mL BACE stock solution with enzyme assay buffer to a final concentration of 4 μg/mL.
Test compounds were dissolved in DMSO at 10 mM.
The procedure for this assay was as follows: 15 μL of BACE working solution was pipetted into each well of a 96-well plate. To each well was then pipetted 2 μL of test compound at the selected concentration. Test compound and BACE were then mixed with a pipettor and incubated for 20 min at room temperature. To each well was then added 10 μL of the FS1 substrate working solution.
The procedure for the positive control was as follows: 15 μL of BACE working solution was pipetted into each well to be used as a positive control. To each well was then pipetted 2 μL of vehicle. Vehicle and BACE were then mixed with a pipettor and incubated for 20 min at room temperature. To each well was then added 10 μL of the FS1 substrate working solution.
For test compounds, measured at multiple concentrations, the measured T0 and T60 values were used to calculate an IC50 value using Graphpad Software (or PIR). For test compounds, Ki inhibition was determined as follows: For each compound concentration and positive control, rate of cleavage of substrate (Vi, where i=compound concentration in μM) was determined as Δ Fluorescence/Δ time (min). Cleavage rates (Vi) were plotted as a function of inhibitor concentration in μM [I]. The Ki was then determined by fitting the following equation to the graph of [I] vs Vi Y=aVmax/(50+24*(1+X/Ki)),

[2] = biological target: T1, β-secretase(BACE); assay: BACE FS1% Inhibition Assay; type: biochemical; settings: FS1 substrate; for inhibition at 0.3 µM: 0.3 μM test compound; for inhibition at 1 µM: 1 μM test compound; for inhibition at 3 µM: 3 μM test compound
Method in brief: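 Percent inhibition at each tested concentration, referenced to enzyme-free blank and vehicle-only positive control. Reaction: compound and BACE (4 μg/mL working stock) mixed 20 min at room temperature before FS1 substrate (300 μg/mL working stock), then 1 h at room temperature.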

[3] = read-out: % Inhibition (FS) 0.3 μM
[4] = read-out: % Inhibition (FS) 1 μM
[5] = read-out: % Inhibition (FS) 3 μM

T1 sequence (P56817 46-501): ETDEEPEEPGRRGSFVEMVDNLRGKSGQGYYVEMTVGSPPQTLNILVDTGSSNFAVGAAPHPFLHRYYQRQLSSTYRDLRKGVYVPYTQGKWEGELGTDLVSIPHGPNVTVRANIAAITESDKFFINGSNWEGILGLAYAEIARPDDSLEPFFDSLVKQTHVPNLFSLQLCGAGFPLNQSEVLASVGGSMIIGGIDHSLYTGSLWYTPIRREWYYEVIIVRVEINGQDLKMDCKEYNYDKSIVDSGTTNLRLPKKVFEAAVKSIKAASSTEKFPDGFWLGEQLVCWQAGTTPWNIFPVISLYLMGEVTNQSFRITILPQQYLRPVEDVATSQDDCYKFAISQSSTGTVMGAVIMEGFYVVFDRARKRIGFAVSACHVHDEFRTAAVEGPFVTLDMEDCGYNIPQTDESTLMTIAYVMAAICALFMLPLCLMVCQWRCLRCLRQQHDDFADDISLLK

**Q.** How did the Ki [1] turn out when `CN(C(=O)CC[C@@H](C1CCCCC1)N1Cc2c(cccc2Oc2ccccc2)N=C1N)C1CCCCC1` [Compound 753] was run?
**A.** 0.656 µM

**Q.** What about the inhibition at 0.3 µM ([2]; read-out: % Inhibition (FS)) of the same molecule?
**A.** 13%

**Q.** What about the inhibition at 1 µM ([2]; read-out: % Inhibition (FS)) of the same molecule?
**A.** 47%

**Q.** What about the inhibition at 3 µM ([2]; read-out: % Inhibition (FS)) of the same molecule?
**A.** 93%

**Q.** How did the Ki [1] turn out when `NC1=Nc2ccc(-c3ccccc3)cc2CN1CCNC(=O)C1CCCCC1` [Compound 515] was run?
**A.** 0.13 µM

**Q.** And the inhibition at 0.3 µM [2, 3]?
**A.** 41%

**Q.** What about the inhibition at 1 µM [2, 4] of the same molecule?
**A.** 66%

**Q.** What about the inhibition at 3 µM [2, 5] of the same molecule?
**A.** 110%

**Q.** For `CN(C(=O)CC[C@@H](C1CCOCC1)N1Cc2cc(Oc3ccccc3)ccc2N=C1N)C1CCCCC1` [Compound 709, (S)-enantiomer of 4-(2-Amino-6-phenoxy-4H-quinazolin-3-yl)-N-cyclohexyl-N-methyl-4-(tetrahydro-pyran-4-yl)-butyramide], which Ki [1] is on record?
**A.** 0.0065 µM

**Q.** What about the inhibition at 0.3 µM ([2]; read-out: % Inhibition (FS)) of the same molecule?
**A.** 141%

**Q.** What about the inhibition at 1 µM ([2]; read-out: % Inhibition (FS)) of the same molecule?
**A.** 143%

**Q.** And the inhibition at 3 µM ([2]; read-out: % Inhibition (FS))?
**A.** 139%

**Q.** Which Ki [1] does the source give for `CC(C)N(C(=O)c1cccc(CN2Cc3cc(Oc4ccccc4)ccc3N=C2N)c1)C1CCCCC1` [Compound 192] here?
**A.** 0.22 µM

**Q.** What about the inhibition at 0.3 µM [2, 3] of the same molecule?
**A.** 38%

**Q.** What about the inhibition at 1 µM [2, 4] of the same molecule?
**A.** 92%

**Q.** And the inhibition at 3 µM [2, 5]?
**A.** 110%

**Q.** With `CN(C(=O)CCCC(c1ccccc1)N1Cc2cc(Oc3ccccc3)ccc2N=C1N)C1CCCCC1` (stereo not shown) [Compound 152] as the molecule, how does the Ki [1] read?
**A.** 0.3 µM

**Q.** What about the inhibition at 3 µM [2, 5] of the same molecule?
**A.** 85%

**Q.** And the inhibition at 10 µM ([2]; 10 μM test compound, read-out: % Inhibition (FS) 10 μM)?
**A.** 107%

**Q.** What does the source list for `COC(=O)[C@@H](COCc1ccccc1)N(C)C(=O)CC[C@@H](C1CCCCC1)N1Cc2cc(Oc3ccccc3)ccc2N=C1N` [Compound 779]?
**A.** Ki [1]: 0.045 µM; inhibition at 0.3 µM ([2]; read-out: % Inhibition (FS)): 102%; inhibition at 1 µM ([2]; read-out: % Inhibition (FS)): 107%; inhibition at 3 µM ([2]; read-out: % Inhibition (FS)): 120%

**Q.** With `NC1=Nc2ccc(Oc3ccccc3)cc2CN1C(CNC(=O)C(c1ccccc1)c1ccccc1)C1CCCCC1` (stereo not shown) [Compound 304] as the molecule, how does the Ki [1] read?
**A.** 0.56 µM

**Q.** And the inhibition at 0.3 µM [2, 3]?
**A.** < 30%

**Q.** And the inhibition at 1 µM [2, 4]?
**A.** 46%

**Q.** And the inhibition at 3 µM [2, 5]?
**A.** 100%

**Q.** `COC(=O)[C@H](COCc1ccccc1)NC(=O)CC[C@@H](C1CCOCC1)N1Cc2cc(Oc3ccccc3)ccc2N=C1N` [Compound 785] was tested. Which Ki [1] did it give?
**A.** 0.198 µM

**Q.** What about the inhibition at 0.3 µM ([2]; read-out: % Inhibition (FS)) of the same molecule?
**A.** 71%

**Q.** What about the inhibition at 1 µM ([2]; read-out: % Inhibition (FS)) of the same molecule?
**A.** 91%

**Q.** What about the inhibition at 3 µM ([2]; read-out: % Inhibition (FS)) of the same molecule?
**A.** 107%

**Q.** For `COc1cccc(Oc2ccc3c(c2)CN(Cc2cccc(C(=O)N(C)C4CCCCC4)c2)C(N)=N3)c1` [Compound 292], which Ki [1] is on record?
**A.** 1 µM

**Q.** What about the inhibition at 0.3 µM [2, 3] of the same molecule?
**A.** < 30%

**Q.** What about the inhibition at 1 µM [2, 4] of the same molecule?
**A.** 49%

**Q.** What about the inhibition at 3 µM [2, 5] of the same molecule?
**A.** 83%

**Q.** How did the Ki [1] turn out when `COc1ccccc1-c1ccc2c(c1)CN(CCC(=O)NC1C3CC4CC(C3)CC1C4)C(N)=N2` (stereo not shown) [Compound 556] was run?
**A.** 0.044 µM

**Q.** What about the inhibition at 0.3 µM [2, 3] of the same molecule?
**A.** 103%

**Q.** What about the inhibition at 1 µM [2, 4] of the same molecule?
**A.** 118%

**Q.** And the inhibition at 3 µM [2, 5]?
**A.** 126%

**Q.** Which results are given for `COc1ccccc1-c1ccc2c(c1)CN([C@@H](CCC(=O)N(C)CCC#N)C1CCCCC1)C(N)=N2` [Compound 720]?
**A.** Ki [1]: 0.3 µM; inhibition at 0.3 µM ([2]; read-out: % Inhibition (FS)): 72%; inhibition at 1 µM ([2]; read-out: % Inhibition (FS)): 93%; inhibition at 3 µM ([2]; read-out: % Inhibition (FS)): 138%

**Q.** `COC(=O)[C@H](COCc1ccccc1)N(C)C(=O)CC[C@@H](C1CCOCC1)N1Cc2cc(Oc3ccccc3)ccc2N=C1N` [Compound 786] was tested. Which Ki [1] did it give?
**A.** 0.101 µM

**Q.** What about the inhibition at 0.3 µM ([2]; read-out: % Inhibition (FS)) of the same molecule?
**A.** 97%

**Q.** And the inhibition at 1 µM ([2]; read-out: % Inhibition (FS))?
**A.** 105%

**Q.** And the inhibition at 3 µM ([2]; read-out: % Inhibition (FS))?
**A.** 114%

**Q.** Which results are given for `NC1=Nc2ccc(Oc3ccccc3)cc2CN1[C@@H](CCC(=O)N(CCO)C1CCCCC1)C1CCCCC1` [Compound 736, (S)-enantiomer of 4-(2-Amino-6-phenoxy-4H-quinazolin-3-yl)-4,N-dicyclohexyl-N-(2-hydroxy-ethyl)-butyramide]?
**A.** Ki [1]: 0.013 µM; inhibition at 0.3 µM ([2]; read-out: % Inhibition (FS)): 125%; inhibition at 1 µM ([2]; read-out: % Inhibition (FS)): 134%; inhibition at 3 µM ([2]; read-out: % Inhibition (FS)): 135%

**Q.** What does the source list for `NC1=Nc2ccc(-c3cccc(CO)c3)cc2CN1CCNC(=O)CC1CCCC1` [Compound 583]?
**A.** Ki [1]: 0.49 µM; inhibition at 0.3 µM [2, 3]: 40%; inhibition at 1 µM [2, 4]: 56%; inhibition at 3 µM [2, 5]: 86%
